This note sets out measurements from patent US8853193B2, “Thienopyrimidines containing a substituted alkyl group for pharmaceutical compositions” (Boehringer Ingelheim International GmbH, priority 2010, dated 2014).

Counter-ions that a name gives are not always drawn.

Sequence of human Mnk2a (Q9HBH9 whole entry): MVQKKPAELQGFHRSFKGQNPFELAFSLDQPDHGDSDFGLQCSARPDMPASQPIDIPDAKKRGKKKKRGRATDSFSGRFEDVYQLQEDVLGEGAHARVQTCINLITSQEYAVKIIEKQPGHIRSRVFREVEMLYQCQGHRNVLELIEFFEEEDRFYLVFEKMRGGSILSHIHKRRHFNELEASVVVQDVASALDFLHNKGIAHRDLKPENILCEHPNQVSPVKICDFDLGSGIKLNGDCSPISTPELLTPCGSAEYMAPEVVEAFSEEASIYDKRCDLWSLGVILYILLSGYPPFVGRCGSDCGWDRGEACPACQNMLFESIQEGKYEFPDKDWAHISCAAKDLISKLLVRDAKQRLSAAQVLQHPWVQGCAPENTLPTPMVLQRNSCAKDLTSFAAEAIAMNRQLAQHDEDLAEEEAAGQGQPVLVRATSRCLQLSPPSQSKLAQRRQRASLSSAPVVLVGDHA

The assay concerns the target human Mnk2a (Homo sapiens (Human), UniProt Q9HBH9). Kind of assay: Mnk2a in vitro kinase assay (indirect competitive fluorescence polarization). Format: biochemical. The note with it: pre-activated GST-Mnk2a 2.5 nM, 20 μM ATP, 30 μM substrate peptide; read-out: MNK2 IC50. The protocol:
Inhibitory potency of compounds against Mnk1, Mnk2a and other kinases was assessed with assays based on a format known to those skilled in the art as the indirect (competitive) fluorescence polarization. The assay detection system comprises a small fluorophore-labeled phospho-peptide (termed ligand) bound to a phospho-specific antibody. The product generated by the kinase reaction competes with the ligand for antibody binding. Based on the larger molecular volume of the bound ligand, which results in a lower rotation rate in solution, its emitted light has a higher degree of polarization than the one from the free ligand.
In brief, the open reading frames of human Mnk1 and Mnk2a were amplified from cDNA using the forward/reverse primer pairs
(utilized restriction sites underlined), respectively, and cloned into the BamHI and SalI sites of the vector pGEX-4T1 (Amersham, Sweden, cat. no. 27-4580-01). These constructs allow prokaryotic expression of Mnk1 or Mnk2a as fusion protein with a N-terminal glutathione S-transferase (GST) tag, referred to as GST-Mnk1 or GST-Mnk2a. The following expression and purification procedure was identical for GST-Mnk1 and GST-Mnk2a, referring in general to GST-Mnk, when not distinguishing between the two isoforms. Expression of GST-Mnk was in E. coli BL21 (Merck Biosciences, Germany, cat. no. 69449). Cells were grown in LB-Bouillon (Merck, Germany, cat. no. 1.10285) supplemented with 100 μg/ml ampicillin (Sigma, Germany, cat. no. A9518) at 37° C. […] Cells harvested by centrifugation were resuspended in 10 ml lysis buffer (50 mM tris(hydroxymethyl)aminomethane hydrochloride (Tris/HCl, Sigma, Germany, cat. no. T5941) pH 7.5, 300 mM sodium chloride (NaCl, Sigma, Germany, cat. no. S7653), 5% (w/v) glycerol (Sigma, Germany, cat. no. G5516), 3 mM DTT dithiotreitol (DTT, Sigma, Germany, cat. no. D9779)) per gram wet weight cell pellet. Lysates were prepared by disruption of cells with a sonifier and subsequent clearing by centrifugation at 38000 g for 45 min at 4° C.
The lysate was applied to a GSTPrep FF 16/10 column (Amersham, Sweden, cat. no. 17-5234-01) equilibrated with lysis buffer. Removal of unbound material was with 3 column volumes (CV) lysis buffer. Elution was with 2 CV of elution buffer (50 mM Tris/HCl pH 7.5, 300 mM NaCl, 5% (w/v) glycerol, 20 mM glutathione (Sigma, Germany, cat. no. G4251)). Peak fractions were pooled and the protein transferred into storage buffer (50 mM Tris/HCl pH 7.5, 200 mM NaCl, 0.1 mM ethylene glycol[…] bis(2-aminoethylether)-N,N,N′,N′-tetraacetic acid (EGTA, Aldrich, Germany, cat. no. 23, 453-2), 1 mM DTT, 10% (w/v) glycerol, 0.5 M sucrose (Sigma, Germany, cat. no. S0389) by gel filtration on a PD10 desalting column (Amersham, Sweden, cat. no. 17-0851-01). Aliquots were shock frozen in liquid nitrogen and stored at −80° C.
Activation of Mnk1 and Mnk2a was at a concentration of 2.5 μM of either purified GST-Mnk1 or GST-Mnk2a by incubation with 150 nM pre-activated NHis-ERK2 (see ERK2 assay for preparation) and 50 μM adenosine triphosphate (ATP, Sigma, cat. no. A2699) in a buffer comprising 20 mM N-(2-hydroxyethyl)piperazine-N′-(2-ethanesulfonic acid) (HEPES, Fluka, Germany, cat. no 54459)/potassium hydroxide (KOH, Roth, Germany, cat. no 6751.1) pH 7.4, 10 mM magnesium chloride (MgCl2, Sigma, Germany, cat. no. M2670), 0.25 mM DTT, 0.05% (w/v) polyoxyethylene 20 stearylether (Brij 78, Sigma, Germany, cat. no. P4019) (HMDB buffer) for 45 min at 30° C. After the incubation, the preparation was aliquoted into single-use samples, shock frozen in liquid nitrogen, stored at −80° C. and utilized for Mnk1 or Mnk2a kinase assays as detailed below.
The serine residue phosphorylated by Mnk kinases is underlined.
(In fluorescence polarisation assays a small probe gives low polarisation when free and higher when bound to something large.)
As a reminder, the IC50 is the point on the concentration scale where inhibition reaches its midpoint. Regarding `COCC(C)Oc1ncccc1Nc1ncnc2sc(C(=O)NCCO)c(C)c12` (stereo not drawn) [Compound 28-4, N-(2-hydroxy-ethyl)-4-(2-(1-methoxy-propan-2-yloxy)pyridin-3-ylamino)-5-methylthieno-[2,3-d]-pyrimidine-6-carbox-amide], the IC50 was found to be 0.078 µM.

In the case of `CCNC(=O)c1sc2ncnc(Nc3cccnc3OC(C)C)c2c1C` [Compound 36-3], the IC50 is 0.026 µM. For `Cc1c(C(=O)NC2CCN(C)CC2)sc2ncnc(Nc3ccc(F)cc3OC(C)CC(F)(F)F)c12` (stereo not drawn) [Compound 32-41], the IC50 was 0.025 µM. The value for `Cc1c(C(N)=O)sc2ncnc(Nc3ccc(F)cc3OCCO)c12` [Compound 32-32] was 0.027 µM; that for `COC(=O)c1sc2ncnc(Nc3ccc(F)cc3OC(C)C(=O)NCCCN)c2c1C` (stereo not drawn) [Compound 56, 4-{2-[1-(3-Amino-propylcarbamoyl)-ethoxy]-4-fluoro-phenylamino}-5-methyl-thieno[2,3-d]pyrimidine-6-carboxylic acid methyl ester] was 0.314 µM.

In the case of `COC(=O)c1sc2ncnc(Nc3ccc(F)cc3OC(C)CN(C)C)c2c1C` (stereo not drawn) [Compound 4, Methyl 4-(2-(1-dimethylamino)propan-2yloxy)-4-fluorophenylamino)-5-methyl-thieno[2,3-d]pyrimidine-6-carboxylate trifluoroacetate], the IC50 was 3.14 µM. As to `Cc1c(C(N)=O)sc2ncnc(Nc3ccc(F)cc3OC(C)C#N)c12` (stereo not drawn) [Compound 54], the IC50 worked out at 0.011 µM. As for `Cc1c(C(N)=O)sc2ncnc(Nc3ccc(F)cc3OC(C)CF)c12` (stereo not drawn) [Compound 32-28], the half-inhibitory concentration (IC50) amounted to 0.003 µM. On to `Cc1c(C(N)=O)sc2ncnc(Nc3cccnc3OC(C)C(F)(F)F)c12` (stereo not drawn) [Compound 21-3, 5-Methyl-4-(2-(1,1,1-trifluoropropan-2-yloxy)pyridin-3-ylamino)thieno[2,3-d]pyrimidine-6-carboxamide], for which the IC50 turned out to be 0.011 µM. The value for `Cc1c(C(N)=O)sc2ncnc(Nc3cccnc3OC(C)C)c12` [Compound 35, 4-(2-Isopropoxypyridin-3-ylamino)-5-methyl-thieno[2,3-d]pyrimidine-6-carboxamide] was 0.012 µM; that for `Cc1c(C(=O)NCC2COCCN2)sc2ncnc(Nc3cccnc3OC(C)C)c12` (stereo not drawn) [Compound 36-14, 4-(2-Isopropoxypyridin-3ylamino)-5-methyl-N-(morpholin-3-ylmethyl) thieno[2,3-d]pyrimidine-6-carboxamide] was 0.064 µM; that for `Cc1c(C(=O)O)sc2ncnc(Nc3cccnc3OCC(C)F)c12` (stereo not drawn) [Compound 27-2, 4-(2-(2-Fluoropropoxy)pyridin-3-ylamino)-5-methyl-thieno[2,3-d]pyrimidine-6-carboxylic acid] was 0.033 µM. Consider `CCCCNC(=O)NCCC(C)Oc1cc(F)ccc1Nc1ncnc2sc(C(=O)OC)c(C)c12` (stereo not drawn) [Compound 13-4, Methyl 4-(2-(4-(3-butylureido)-butan-2-yloxy)-4-fluorophenyl-amino)-5-methylthieno[2,3-d]pyrimidine-6-carboxylate], for which the IC50 was 0.898 µM. As to `Cc1c(C(=O)NCc2cnco2)sc2ncnc(Nc3cccnc3OC(C)C)c12` [Compound 36-8, 4-(2-Isopropoxypyridin-3ylamino)-5-methyl-N-(oxazol-5-ylmethyl)thieno[2,3-d]pyrimidine-6-carboxamide], the IC50 was determined as 0.019 µM. For `COCC(C)Oc1cc(F)ccc1Nc1ncnc2sc(C(=O)NCCO)c(C)c12` (stereo not drawn) [Compound 32-36], the IC50 was 0.025 µM. On to `COC(=O)c1sc2ncnc(Nc3ccc(F)cc3OC(C)CNC(C)=O)c2c1C` (stereo not drawn) [Compound 3-4, Methyl 4-(2-(1-acet-amidopropan-2-yloxy)-4-fluorophenylamino)-5-methylthieno[2,3-d]pyrimidine-6-carboxylate], for which the IC50 is 0.261 µM.

Turning to `Cc1c(C(=O)NCCO)sc2ncnc(Nc3ccc(F)cc3OC(CO)CO)c12` [Compound 32-29], the IC50 turned out to be 0.17 µM. `Cc1c(C(=O)NCCCN(C)C)sc2ncnc(Nc3ccc(C#N)cc3OC(CF)CF)c12` [Compound 49, 4-(4-Cyano-2-(2-fluoro-1-fluoromethyl-ethoxy)-phenylamino]-5-methyl-thieno[2,3-d]pyrimidine-6-carboxylic acid (3-dimethylamino-propyl)-amide]: the IC50 was 0.008 µM.

With `Cc1c(C(=O)NS(C)(=O)=O)sc2ncnc(Nc3ccc(F)cc3OC(CF)CF)c12` [Compound 24, 4-(2-(1,3-Difluoropropan-2-yloxy)-4-fluorophenylamino)-5-methyl-N-(methylsulfonyl)thieno[2,3-d]pyrimidine-6-carboxamide], the IC50 worked out at 0.007 µM. In the case of `Cc1c(C(=O)O)sc2ncnc(Nc3ccc(F)cc3OC(C)CF)c12` (stereo not drawn) [Compound 32.7], the IC50 amounted to 0.005 µM. For `COC(=O)c1sc2ncnc(Nc3ccc(F)cc3OC(CN)CNC(C)=O)c2c1C` (stereo not drawn) [Compound 19-1, Methyl 4-(2-(1-acetamido-3-aminopropan-2-yloxy)-4-fluorophenylamino)-5-methylthieno[2,3-d]pyrimidine-6-carboxylate trifluoroacetate], the IC50 was 1.53 µM. `Cc1c(C(=O)NCCO)sc2ncnc(Nc3ccc(F)cc3OC(C)CNC(=O)OC(C)(C)C)c12` (stereo not drawn) [Compound 1-5, tert-Butyl 2-(5-fluoro-2-(6-(2-hydroxyethyl-carbamoyl)-5-methylthieno[2,3-d]-pyrimidin-4-yl-amino)-phenoxy)propyl-carbamate]: the IC50 worked out at 0.459 µM.

As for `Cc1c(C(=O)NCC(C)O)sc2ncnc(Nc3cccnc3OC(C)C)c12` (stereo not drawn) [Compound 36-13, N-(2-Hydroxypropyl)-4-(2-isopropoxypyridin-3ylamino)-5-methylthieno[2,3-d]pyrimidine-6-carboxamide], the IC50 was found to be 0.054 µM. For the compound `Cc1c(C(=O)NCCN2CCCCC2)sc2ncnc(Nc3cccnc3OC(C)C)c12` [Compound 36-9, 4-(2-Isopropoxypyridin-3ylamino)-5-methyl-N-(2-(piperidin-1-yl)ethyl)thieno[2,3-d]pyrimidine-6-carboxamide], the IC50 was 0.063 µM. Regarding `Cc1c(C(=O)O)sc2ncnc(Nc3cccnc3OCC(F)F)c12` [Compound 30-2, 4-(2-(2,2-Difluoroethoxy)pyridin-3-ylamino)-5-methylthieno[2,3-d]pyrimidine-6-carboxylic acid], the IC50 came to 0.02 µM. With `CCOCC(COCC)Oc1cc(F)ccc1Nc1ncnc2sc(C(N)=O)c(C)c12` [Compound 22-3, 4-(2-(1,3-Diethoxypropan-2-yloxy)-4-fluorophenylamino)-5-methyl-thieno[2,3-d]pyrimidine-6-carboxamide], the IC50 stood at 0.296 µM. Take `Cc1c(C(N)=O)sc2ncnc(Nc3ccc(F)cc3O[C@@H](C)CNC(=O)OC(C)(C)C)c12` (racemic) [Compound 6-1, (R) and (S)-tert-butyl 2-(2-(6-carbamoyl-5-methyl-thieno[2,3-d]pyrimidin-4-ylamino)-5-fluorophenoxy)propylcarbamate]: the IC50 is 0.164 µM. Consider `COCC(C)Oc1cc(F)ccc1Nc1ncnc2sc(C(N)=O)c(C)c12` (stereo not drawn) [Compound 32-37], for which the IC50 came to 0.008 µM. `Cc1c(C(=O)NCCC2CCN(C)C2)sc2ncnc(Nc3ccc(F)cc3OC(C)CF)c12` (stereo not drawn) [Compound 32-43]: the IC50 was found to be 0.012 µM. Take `Cc1c(C(N)=O)sc2ncnc(Nc3ccc(F)cc3OC(C)CNC(=O)OC(C)(C)C)c12` (stereo not drawn) [Compound 5, tert-Butyl 2-(2-(6-carbamoyl-5-methyl-thieno[2,3-d]pyrimidin-4-ylamino)-5-fluorophenoxy)propylcarbamate]: the IC50 amounted to 0.23 µM.
